Inhibition data for ten compounds are collected here from ChEMBL document CHEMBL5442334, “ASAP - In vitro safety pharmacology profile” (2024).

What all share (conditions): Test compound concentration 10.0 uM
The target of experiment [1] is T1, Alpha-2A adrenergic receptor (Homo sapiens) (UniProt P08913).
T1 sequence (whole entry): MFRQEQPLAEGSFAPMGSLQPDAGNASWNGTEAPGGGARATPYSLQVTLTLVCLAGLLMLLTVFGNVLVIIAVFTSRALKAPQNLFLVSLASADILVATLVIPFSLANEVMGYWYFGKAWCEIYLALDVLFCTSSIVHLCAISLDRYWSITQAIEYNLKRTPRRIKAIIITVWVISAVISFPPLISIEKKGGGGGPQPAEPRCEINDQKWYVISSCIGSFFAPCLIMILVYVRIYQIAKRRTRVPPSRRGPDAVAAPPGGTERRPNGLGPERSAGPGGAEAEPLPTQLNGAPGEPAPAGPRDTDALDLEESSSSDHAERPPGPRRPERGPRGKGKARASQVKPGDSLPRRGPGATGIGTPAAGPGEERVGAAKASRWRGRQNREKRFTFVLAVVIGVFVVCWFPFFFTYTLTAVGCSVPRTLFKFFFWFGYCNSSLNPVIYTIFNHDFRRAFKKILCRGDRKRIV
Nature of the experiment: SafetyScreen: alpha2A Human Adrenoceptor GPCR Binding Antagonist Radioligand LeadHunter Assay, catalogue number: 13.

Experiment [2] concerns the target Histamine H2 receptor (Homo sapiens) (UniProt P25021). Nature of the experiment: SafetyScreen: H2 Human Histamine GPCR Binding Antagonist Radioligand LeadHunter Assay, catalogue number: 1208.
Experiment [3] has as its target T2, Muscarinic acetylcholine receptor M2 (Homo sapiens) (UniProt P08172).
T2 sequence (whole entry): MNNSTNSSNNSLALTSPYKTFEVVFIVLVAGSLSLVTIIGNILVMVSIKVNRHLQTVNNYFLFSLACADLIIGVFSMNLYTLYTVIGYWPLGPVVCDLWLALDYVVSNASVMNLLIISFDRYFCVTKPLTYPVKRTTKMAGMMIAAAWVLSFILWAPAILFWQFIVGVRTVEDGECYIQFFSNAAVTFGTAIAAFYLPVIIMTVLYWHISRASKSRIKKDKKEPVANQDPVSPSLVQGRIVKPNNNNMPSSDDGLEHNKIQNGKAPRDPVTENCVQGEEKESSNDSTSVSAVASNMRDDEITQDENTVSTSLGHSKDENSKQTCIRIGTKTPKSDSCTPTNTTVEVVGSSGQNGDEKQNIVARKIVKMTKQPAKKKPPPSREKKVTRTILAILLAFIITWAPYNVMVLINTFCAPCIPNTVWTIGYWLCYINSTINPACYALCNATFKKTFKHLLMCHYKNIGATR
Description: SafetyScreen: M2 Human Acetylcholine (Muscarinic) GPCR Binding Antagonist Radioligand LeadHunter Assay, catalogue number: 93.

In experiment [4] the target is Delta-type opioid receptor (Homo sapiens) (UniProt P41143). Description: SafetyScreen: delta (DOP) Human Opioid GPCR Binding Agonist Radioligand LeadHunter Assay, catalogue number: 114.
Chain of Delta-type opioid receptor (Homo sapiens) (P41143 whole entry): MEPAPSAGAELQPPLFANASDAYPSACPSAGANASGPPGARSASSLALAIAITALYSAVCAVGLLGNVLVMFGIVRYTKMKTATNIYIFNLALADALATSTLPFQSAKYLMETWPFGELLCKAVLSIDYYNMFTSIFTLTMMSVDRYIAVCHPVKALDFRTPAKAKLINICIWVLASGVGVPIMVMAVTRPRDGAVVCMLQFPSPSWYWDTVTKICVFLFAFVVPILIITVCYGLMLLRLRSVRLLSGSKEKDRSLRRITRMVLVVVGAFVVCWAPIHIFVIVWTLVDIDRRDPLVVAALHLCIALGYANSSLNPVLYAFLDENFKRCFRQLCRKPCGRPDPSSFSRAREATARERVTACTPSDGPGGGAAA
The target of experiment [5] is Sodium-dependent serotonin transporter (Homo sapiens) (UniProt P31645). Nature of the experiment: SafetyScreen: SERT Human Serotonin Transporter Binding Antagonist Radioligand LeadHunter Assay, catalogue number: 439.
Chain of Sodium-dependent serotonin transporter (Homo sapiens) (P31645 whole entry, looked up): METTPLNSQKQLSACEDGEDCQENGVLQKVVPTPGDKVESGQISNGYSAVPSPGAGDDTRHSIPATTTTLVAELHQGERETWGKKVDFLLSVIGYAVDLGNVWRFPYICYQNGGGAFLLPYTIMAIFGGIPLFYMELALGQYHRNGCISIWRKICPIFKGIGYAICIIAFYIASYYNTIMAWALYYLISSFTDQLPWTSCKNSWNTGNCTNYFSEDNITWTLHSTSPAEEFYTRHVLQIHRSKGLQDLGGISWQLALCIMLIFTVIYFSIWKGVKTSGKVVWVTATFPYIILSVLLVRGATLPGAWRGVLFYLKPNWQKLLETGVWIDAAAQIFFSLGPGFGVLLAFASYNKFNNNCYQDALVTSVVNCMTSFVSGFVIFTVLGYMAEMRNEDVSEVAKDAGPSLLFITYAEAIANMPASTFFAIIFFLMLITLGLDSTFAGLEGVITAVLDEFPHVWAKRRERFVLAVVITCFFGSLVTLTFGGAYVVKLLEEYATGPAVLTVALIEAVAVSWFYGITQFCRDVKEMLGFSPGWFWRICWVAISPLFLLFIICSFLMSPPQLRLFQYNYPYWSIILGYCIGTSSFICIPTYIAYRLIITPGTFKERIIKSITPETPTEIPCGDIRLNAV
For experiment [6], the target named is Acetylcholinesterase (Homo sapiens) (UniProt P22303). Nature of the experiment: SafetyScreen: Acetylcholinesterase Human Enzymatic LeadHunter Assay, catalogue number: 363. The experiment is classed as functional.
Chain of Acetylcholinesterase (Homo sapiens) (P22303 whole entry): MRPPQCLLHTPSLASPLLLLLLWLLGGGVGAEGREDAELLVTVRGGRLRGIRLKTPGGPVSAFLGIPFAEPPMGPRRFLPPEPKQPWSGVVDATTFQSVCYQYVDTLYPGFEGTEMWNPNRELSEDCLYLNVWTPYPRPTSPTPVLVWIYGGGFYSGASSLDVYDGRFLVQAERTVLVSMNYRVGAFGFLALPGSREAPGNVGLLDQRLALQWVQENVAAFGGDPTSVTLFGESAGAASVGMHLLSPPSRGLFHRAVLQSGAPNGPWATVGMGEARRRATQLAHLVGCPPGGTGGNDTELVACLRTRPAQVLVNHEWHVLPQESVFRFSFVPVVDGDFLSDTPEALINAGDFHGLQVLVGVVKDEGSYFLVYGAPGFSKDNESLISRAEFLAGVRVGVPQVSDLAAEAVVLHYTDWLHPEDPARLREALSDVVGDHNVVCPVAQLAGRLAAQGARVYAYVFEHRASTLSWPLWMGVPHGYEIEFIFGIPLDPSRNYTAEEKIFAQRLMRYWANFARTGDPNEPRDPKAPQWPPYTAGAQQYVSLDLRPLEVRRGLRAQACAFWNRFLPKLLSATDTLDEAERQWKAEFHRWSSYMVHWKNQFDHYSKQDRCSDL
Experiment [7] deals with Prostaglandin G/H synthase 1 (Homo sapiens) (UniProt P23219). Description: SafetyScreen: COX1 Human Cyclooxygenase Enzymatic LeadHunter Assay, catalogue number: 4173. It is filed as functional.
Chain of Prostaglandin G/H synthase 1 (Homo sapiens) (P23219 whole entry): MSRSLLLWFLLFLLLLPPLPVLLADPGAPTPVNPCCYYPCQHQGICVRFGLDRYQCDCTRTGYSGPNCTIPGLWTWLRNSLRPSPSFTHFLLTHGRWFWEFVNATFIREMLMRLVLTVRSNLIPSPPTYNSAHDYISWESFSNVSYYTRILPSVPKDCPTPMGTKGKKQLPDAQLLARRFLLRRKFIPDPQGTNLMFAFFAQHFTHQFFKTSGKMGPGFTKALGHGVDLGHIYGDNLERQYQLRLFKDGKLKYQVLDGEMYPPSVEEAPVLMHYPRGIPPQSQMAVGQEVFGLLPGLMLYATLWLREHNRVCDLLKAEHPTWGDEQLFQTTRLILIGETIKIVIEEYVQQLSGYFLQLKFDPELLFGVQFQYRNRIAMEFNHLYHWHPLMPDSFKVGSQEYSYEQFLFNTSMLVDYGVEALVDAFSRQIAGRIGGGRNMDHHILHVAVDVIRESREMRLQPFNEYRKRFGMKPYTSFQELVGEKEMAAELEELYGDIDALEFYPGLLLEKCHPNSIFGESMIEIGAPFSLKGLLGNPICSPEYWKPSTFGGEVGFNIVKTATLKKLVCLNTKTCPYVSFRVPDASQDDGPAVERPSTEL

In general, inhibition refers to the drop in the measured response relative to a control, in per cent.

Chain of Histamine H2 receptor (Homo sapiens) (P25021 whole entry): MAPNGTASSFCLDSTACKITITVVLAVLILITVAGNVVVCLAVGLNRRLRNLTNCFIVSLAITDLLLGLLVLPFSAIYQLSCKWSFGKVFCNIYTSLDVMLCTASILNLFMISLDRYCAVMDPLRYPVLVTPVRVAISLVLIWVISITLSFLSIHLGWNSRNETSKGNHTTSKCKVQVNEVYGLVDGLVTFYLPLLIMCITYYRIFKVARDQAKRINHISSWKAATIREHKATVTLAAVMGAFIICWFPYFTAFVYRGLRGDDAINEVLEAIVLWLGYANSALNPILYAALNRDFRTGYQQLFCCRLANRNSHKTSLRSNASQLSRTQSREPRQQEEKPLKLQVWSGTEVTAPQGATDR

As to `Cn1ncc(-c2cc3c(N[C@@H](c4ccc5c(n4)OCCO5)C(C)(C)C)ncnc3[nH]2)c1C#N`, the inhibition in experiment [1] was 11%; in experiment [2] it was -10%; in experiment [3], 25%; in experiment [4], 15%; in experiment [5], 2%; in experiment [6], 14%.

Turning to `CC(C)[C@@H](Nc1ncnc2[nH]c(-c3cnn(C)c3C#N)cc12)c1ccc2c(n1)OCCO2`, the inhibition in experiment [1] worked out at 9%; in experiment [3] it was 15%; in experiment [4] it was 71%; in experiment [5], 9%; in experiment [6], 22%.

In the case of `CNC(=O)Cn1cc(-c2cc3c(N[C@@H](c4ccc5c(c4)S(=O)(=O)CCC5)C(C)C)ncnc3[nH]2)cn1`, the inhibition in experiment [1] was 4%; in experiment [3], 7%; in experiment [4], 7%; in experiment [5] it was -3%; in experiment [7], -8%; in experiment [6], 13%.

`CNCc1cc(-c2cc3c(N[C@@H](c4ccc5c(c4)S(=O)(=O)CCC5)C(C)C)ncnc3[nH]2)co1`: the inhibition in experiment [1] is 15%; in experiment [2], -3%; in experiment [3] it was 52%; in experiment [4], 53%; in experiment [5], 24%; in experiment [7], -6%. In addition, the inhibition in experiment [6] was 10%.

As to `COc1ccc([C@H](Cc2nnn[nH]2)NC(=O)c2ncnc3[nH]ccc23)cc1`, the inhibition is -1% in experiment [1], -1% in experiment [5], 17% in experiment [7] and 11% in experiment [6].

For `CC(C)[C@@H](Nc1ncnc2[nH]c(C(=O)N[C@@H]3CCN(C)C3)cc12)c1ccc2c(c1)S(=O)(=O)CCC2`, the inhibition in experiment [1] was 6%; in experiment [2], -9%; in experiment [3], 52%; in experiment [5], 1%; in experiment [7], 44%; in experiment [6] it was 28%.

Turning to `CC(C)[C@H](Nc1ncnc2[nH]ccc12)c1ccc2c(c1)S(=O)(=O)CCC2`, the inhibition was 10% in experiment [1]; -6% in experiment [2]; 34% in experiment [3]; 30% in experiment [4]; 0% in experiment [5]; 85% in experiment [7]. Besides, the inhibition in experiment [6] amounted to 12%.

As for `Cc1nn(C)cc1-c1cc2c(N[C@H](c3ccc4c(c3)S(=O)(=O)CCC4)C(C)C)ncnc2[nH]1`, the inhibition in experiment [1] was 5%; in experiment [2], -4%; in experiment [3], 5%; in experiment [4], 16%; in experiment [5] it was -4%; in experiment [6], 13%.

As to `CC(C)[C@H](Nc1ncnc2[nH]c(-c3cnn(C)c3C#N)cc12)c1ccc2c(n1)OCCO2`, the inhibition in experiment [1] stood at 7%; in experiment [3] it was 18%; in experiment [4], 58%; in experiment [5] it was 4%; in experiment [6], 15%.

On to `C[C@H](C(=O)O)[C@@H](NC(=O)c1ncnc2[nH]ccc12)c1ccc(Br)cc1`, for which the inhibition was 3% in experiment [1]; -4% in experiment [3]; 0% in experiment [5]; 14% in experiment [7]; 12% in experiment [6].
